Experimental data as given in ChEMBL document CHEMBL3727363, “Imidazothiadiazole derivatives as protease activated receptor 4 (PAR4) inhibitors for treating platelet aggregation” (2013).
pIC50: −log10 of the molar value.

Legend:
[1] = molecular target: T1, Proteinase-activated receptor 4 (Homo sapiens, UniProt Q96RI0); test: Antagonist activity against human PAR4 expressed in HEK293 cells assessed as reduction in H-Ala-Phe(4-F)-Pro-Gly-Trp-Leu-Val-Lys-Asn-Gly-NH2-induced intracellular calcium mobilization incubated for 30 mins before agonist addition by FLIPR assay; assay type: functional, cell-based
T1 sequence (Q96RI0 whole entry): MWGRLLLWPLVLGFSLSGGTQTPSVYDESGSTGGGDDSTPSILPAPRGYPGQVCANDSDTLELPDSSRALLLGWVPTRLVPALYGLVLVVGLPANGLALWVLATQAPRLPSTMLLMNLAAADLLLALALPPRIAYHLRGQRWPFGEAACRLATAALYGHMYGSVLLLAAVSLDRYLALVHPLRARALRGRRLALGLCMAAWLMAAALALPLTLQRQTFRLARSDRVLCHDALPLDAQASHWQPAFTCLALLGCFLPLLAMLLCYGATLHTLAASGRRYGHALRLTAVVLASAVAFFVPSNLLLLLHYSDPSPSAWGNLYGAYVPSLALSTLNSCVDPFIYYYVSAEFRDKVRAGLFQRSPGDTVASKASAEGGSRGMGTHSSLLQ

[2] = molecular target: T2, Proteinase-activated receptor 4 (Homo sapiens) (UniProt Q96RI0); test: Antagonist activity against PAR4 in washed human platelets assessed as inhibition of […] alpha-thrombin-induced platelet aggregation pre-incubated for 5 mins before alpha-thrombin addition by optical aggregometry; assay type: functional
T2 sequence (whole entry): T1 sequence (Q96RI0 whole entry)

[3] = molecular target: T2, Proteinase-activated receptor 4 (Homo sapiens); test: Antagonist activity against PAR4 in washed human platelets assessed as inhibition of 5 nM alpha-thrombin-induced platelet aggregation pre-incubated for 5 mins before alpha-thrombin addition by optical aggregometry; assay type: functional
Cynomolgus monkey [4] = test: Antithrombotic activity in cynomolgus monkey model of electrolytic injury-induced carotid artery thrombosis assessed as reduction in thrombosis-induced occlusion by measuring thrombus weight at 0.4 mg/kg, po dosed 1 to 2 hrs before test; assay type: functional, Macaca fascicularis; design: scale not given: the % may be the effect or the level left
Cynomolgus monkey [5] = test: Antithrombotic activity in cynomolgus monkey model of electrolytic injury-induced carotid artery thrombosis assessed as reduction in thrombosis-induced occlusion by measuring thrombus weight at 2 mg/kg, po dosed 1 to 2 hrs before test; assay type: functional, Macaca fascicularis; design: scale not given: the % may be the effect or the level left
Cynomolgus monkey [6] = test: Antithrombotic activity in cynomolgus monkey model of electrolytic injury-induced carotid artery thrombosis assessed as reduction in thrombosis-induced occlusion by measuring thrombus weight at 10 mg/kg, po dosed 1 to 2 hrs before test; assay type: functional, Macaca fascicularis; design: scale not given: the % may be the effect or the level left

Compound: COc1cc(OCc2cccc(OCc3ccc(OC)c(C)c3C)c2)c2cc(-c3cn4nc(OC)sc4n3)oc2c1
- pIC50 [1]: 8.26

Compound: COc1nn2cc(-c3cc4ccc([N+](=O)[O-])cc4o3)nc2s1
- pIC50 [1]: 7.42

Compound: CSc1nn2cc(-c3cc4c(C(F)(F)F)cc(C)nc4o3)nc2s1
- pIC50 [1]: 8.09

Compound: COc1cc(OCc2ccccc2)c2cc(-c3cn4nc(OC)sc4n3)oc2c1
- inhibition [2]: Dose-dependent effect
- inhibition [3]: Dose-dependent effect

Compound: COc1cc(OCc2cccc(OCc3ccccc3)c2)c2cc(-c3cn4nc(OC)sc4n3)oc2c1
- Activity (Cynomolgus monkey [4]): -9%
- Activity (Cynomolgus monkey [5]): -38%
- Activity (Cynomolgus monkey [6]): -38%

Compound: COc1cccc2oc(-c3cn4nc(SC)sc4n3)cc12
- pIC50 [1]: 7.96
